{
  "source": "patent US8431556B2",
  "about": "“C-21-keto lupane derivatives preparation and use thereof” (Vertex Pharmaceuticals Incorporated, priority 2008, dated 2013)",
  "tested_on": "HIV-1 (HIVIIIB)",
  "assay": "HIV-1 replication in MT2 cell line with and without 30% human serum (viral RT activity in supernatant)",
  "format": "cell-based",
  "conditions": "Human immunodeficiency virus 1, MT2, MT-2 cells, average IC50 if tested more than once",
  "how_it_was_run": "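MT2 cells infected with HIVIIIB at MOI 0.5 for 3 h, washed, then cultured with serially diluted compound in RPMI/10% FBS, with or without 30% human serum, at 37° C. Compound-containing medium refreshed at day 3. Replication measured as supernatant RT activity at day 5; IC50 and IC90 from curve fits.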",
  "key": {"[1]": {"conditions": "with 30% human serum, read-out: MT-2 (HIVIIIB) with 30% HS IC50 range"}},
  "note": "Where two headings read alike, the source gives them in different places.",
  "data": [
    {"smiles": "CC(C)C1=C2[C@H]3CC[C@@H]4[C@@]5(C)CC[C@H](OC(=O)CC(C)(C)C(=O)O)C(C)(C)[C@@H]5CC[C@@]4(C)[C@]3(C)CC[C@@]2(C(=O)Nc2cncnc2)CC1=O", "note": "[9-51, 3β-O-(3′,3′-Dimethylsuccinyl)-21-oxolup-18-en-28-oic acid N-pyrimidin-5-yl-acetamide]", "values": [
      {"measurement": "IC50", "setting": "[1]", "value": "< 199", "unit": "nM"}
    ]},
    {"smiles": "CC(C)C1=C2[C@H]3CC[C@@H]4[C@@]5(C)CC[C@H](OC(=O)CC(C)(C)C(=O)O)C(C)(C)[C@@H]5CC[C@@]4(C)[C@]3(C)CC[C@@]2(C(=O)Nc2ccncn2)CC1=O", "note": "[9-64, 3β-O-(3′,3′-Dimethylsuccinyl)-21-oxolup-18-en-28-oic acid N-pyrimidin-4-yl-acetamide]", "values": [
      {"measurement": "IC50", "setting": "[1]", "value": "< 199", "unit": "nM"}
    ]},
    {"smiles": "CC(C)C1=C2[C@H]3CC[C@@H]4[C@@]5(C)CC[C@H](OC(=O)CC(C)(C)C(=O)O)C(C)(C)[C@@H]5CC[C@@]4(C)[C@]3(C)CC[C@@]2(C(=O)N2C3CCC2CN(C(=O)OC(C)(C)C)C3)CC1=O", "note": "[9-50, 3β-O-(3′,3′-Dimethylsuccinyl)-21-oxolup-18-en-28-oic acid N-8-acetylamino-3,8-diaza-bicyclo[3.2.1]octane-3-carboxylic acid tert-butyl ester]", "values": [
      {"measurement": "IC50", "setting": "[1]", "value": "< 199", "unit": "nM"}
    ]},
    {"smiles": "COc1ccc(CCNC(=O)[C@@]23CC[C@]4(C)[C@H](CC[C@@H]5[C@@]6(C)CC[C@H](OC(=O)CC(C)(C)C(=O)O)C(C)(C)[C@@H]6CC[C@]54C)C2=C(C(C)C)C(=O)C3)cc1", "note": "[9-19, 3β-O-(3′,3′-Dimethylsuccinyl)-21-oxolup-18-en-28-oic acid N-[2-(4-methoxy-phenyl)-ethyl]-acetamide]", "values": [
      {"measurement": "IC50", "setting": "without HS, read-out: MT-2 (HIVIIIB) IC50 range", "value": "< 199", "unit": "nM"}
    ]},
    {"smiles": "CC(C)C1=C2[C@H]3CC[C@@H]4[C@@]5(C)CC[C@H](OC(=O)CC(C)(C)C(=O)O)C(C)(C)[C@@H]5CC[C@@]4(C)[C@]3(C)CC[C@@]2(C(=O)Nc2cnccn2)CC1=O", "note": "[9-59, 3β-O-(3′,3′-Dimethylsuccinyl)-21-oxolup-18-en-28-oic acid N-pyrazin-2-yl-acetamide]", "values": [
      {"measurement": "IC50", "setting": "[1]", "value": "< 199", "unit": "nM"}
    ]},
    {"smiles": "COC(=O)NC1CCN(C(=O)[C@@]23CC[C@]4(C)[C@H](CC[C@@H]5[C@@]6(C)CC[C@H](OC(=O)CC(C)(C)C(=O)O)C(C)(C)[C@@H]6CC[C@]54C)C2=C(C(C)C)C(=O)C3)CC1", "note": "[9-45, 3β-O-(3′,3′-Dimethylsuccinyl)-21-oxolup-18-en-28-oic acid N-(4-aminocarboxylic acid methyl ester-1-piperidine)-acetamide]", "values": [
      {"measurement": "IC50", "setting": "[1]", "value": "< 199", "unit": "nM"}
    ]},
    {"smiles": "CC(C)C1=C2[C@H]3CC[C@@H]4[C@@]5(C)CC[C@H](OC(=O)CC(C)(C)C(=O)O)C(C)(C)[C@@H]5CC[C@@]4(C)[C@]3(C)CC[C@@]2(C(=O)NCC(F)(F)F)CC1=O", "note": "[9-71, 3β-O-(3′,3′-Dimethylsuccinyl)-21-oxolup-18-en-28-oic acid N-(2,2,2-trifluoro-ethyl)-acetamide]", "values": [
      {"measurement": "IC50", "setting": "[1]", "value": "< 199", "unit": "nM"}
    ]},
    {"smiles": "CC(C)C1=C2C3CCC4[C@@]5(C)CC[C@H](OC(=O)CC(C)(C)C(=O)O)C(C)(C)C5CC[C@@]4(C)[C@]3(C)CC[C@@]2(C(=O)NC[C@H]2CCCN2C)CC1=O", "note": "(stereo partly drawn) [9-83, 3β-O-(3′,3′-Dimethylsuccinyl)-21-oxolup-18-en-28-oic acid N-((R)-1-methyl-pyrrolidin-2-ylmethyl)-acetamide]", "values": [
      {"measurement": "IC50", "setting": "[1]", "value": "< 199", "unit": "nM"}
    ]},
    {"smiles": "CC(C)C1=C2[C@H]3CC[C@@H]4[C@@]5(C)CC[C@H](OC(=O)CC(C)(C)C(=O)O)C(C)(C)[C@@H]5CC[C@@]4(C)[C@]3(C)CC[C@@]2(C(=O)N2C3CCC2CN(C(=O)c2ccccc2)C3)CC1=O", "note": "[9-36, 3β-O-(3′,3′-Dimethylsuccinyl)-21-oxolup-18-en-28-oic acid N-(8-amino-3,8-diaza-bicyclo[3.2.1]octane-3-benzamide)-acetamide]", "values": [
      {"measurement": "IC50", "setting": "[1]", "value": "< 199", "unit": "nM"}
    ]},
    {"smiles": "CC(C)C1=C2C3CCC4[C@@]5(C)CC[C@H](OC(=O)CC(C)(C)C(=O)O)C(C)(C)C5CC[C@@]4(C)[C@]3(C)CC[C@@]2(C(=O)N2Cc3ccccc3C2)CC1=O", "note": "(stereo partly drawn) [9-92, 3β-O-(3′,3′-Dimethylsuccinyl)-21-oxolup-18-en-28-oic acid N-(1,3-dihydro-isoindol-2-yl)-acetamide]", "values": [
      {"measurement": "IC50", "setting": "[1]", "value": "< 199", "unit": "nM"}
    ]},
    {"smiles": "CC(C)C1=C2[C@H]3CC[C@@H]4[C@@]5(C)CC[C@H](OC(=O)CC(C)(C)C(=O)O)C(C)(C)[C@@H]5CC[C@@]4(C)[C@]3(C)CC[C@@]2(C(=O)NCCNC(=O)OC(C)(C)C)CC1=O", "note": "[9-20, 3β-O-(3′,3′-Dimethylsuccinyl)-21-oxolup-18-en-28-oic acid N-(2-acetylamino-ethyl)-carbamic acid tert-butyl ester]", "values": [
      {"measurement": "IC50", "setting": "[1]", "value": "< 199", "unit": "nM"}
    ]},
    {"smiles": "CC(C)C1=C2[C@H]3CC[C@@H]4[C@@]5(C)CC[C@H](OC(=O)CC(C)(C)C(=O)O)C(C)(C)[C@@H]5CC[C@@]4(C)[C@]3(C)CC[C@@]2(C(=O)NCCN2CCCC2)CC1=O", "note": "[9-61, 3β-O-(3′,3′-Dimethylsuccinyl)-21-oxolup-18-en-28-oic acid N-(2-pyrrolidin-1-yl-ethyl)-acetamide]", "values": [
      {"measurement": "IC50", "setting": "[1]", "value": "< 199", "unit": "nM"}
    ]},
    {"smiles": "COc1ccc(CNC(=O)[C@@]23CC[C@]4(C)[C@H](CC[C@@H]5[C@@]6(C)CC[C@H](OC(=O)CC(C)(C)C(=O)O)C(C)(C)[C@@H]6CC[C@]54C)C2=C(C(C)C)C(=O)C3)cc1", "note": "[9-15, 3β-O-(3′,3′-Dimethylsuccinyl)-21-oxolup-18-en-28-oic acid N-4-methoxy-benzylamide]", "values": [
      {"measurement": "IC50", "setting": "[1]", "value": "< 199", "unit": "nM"}
    ]},
    {"smiles": "CC(C)C1=C2[C@H]3CC[C@@H]4[C@@]5(C)CC[C@H](OC(=O)CC(C)(C)C(=O)O)C(C)(C)[C@@H]5CC[C@@]4(C)[C@]3(C)CC[C@@]2(C(=O)NCc2ccccc2Cl)CC1=O", "note": "[9-12, 3β-O-(3′,3′-Dimethylsuccinyl)-21-oxolup-18-en-28-oic acid N-2-chloro-benzylamide]", "values": [
      {"measurement": "IC50", "setting": "[1]", "value": "< 199", "unit": "nM"}
    ]},
    {"smiles": "CC(C)C1=C2[C@H]3CC[C@@H]4[C@@]5(C)CC[C@H](OC(=O)CC(C)(C)C(=O)O)C(C)(C)[C@@H]5CC[C@@]4(C)[C@]3(C)CC[C@@]2(C(=O)N2CCN(C)C(=O)C2)CC1=O", "note": "[9-46, 3β-O-(3′,3′-Dimethylsuccinyl)-21-oxolup-18-en-28-oic acid N-4-(1-methyl-piperazi-2-one)-acetamide]", "values": [
      {"measurement": "IC50", "setting": "[1]", "value": "< 199", "unit": "nM"}
    ]},
    {"smiles": "Cc1ccnc(NC(=O)[C@@]23CC[C@]4(C)[C@H](CC[C@@H]5[C@@]6(C)CC[C@H](OC(=O)CC(C)(C)C(=O)O)C(C)(C)[C@@H]6CC[C@]54C)C2=C(C(C)C)C(=O)C3)n1", "note": "[9-56, 3β-O-(3′,3′-Dimethylsuccinyl)-21-oxolup-18-en-28-oic acid N-4-methyl-pyrimidin-2-yl-acetamide]", "values": [
      {"measurement": "IC50", "setting": "[1]", "value": "< 199", "unit": "nM"}
    ]},
    {"smiles": "CCOC(=O)NC1CCN(C(=O)[C@@]23CC[C@]4(C)[C@H](CC[C@@H]5[C@@]6(C)CC[C@H](OC(=O)CC(C)(C)C(=O)O)C(C)(C)[C@@H]6CC[C@]54C)C2=C(C(C)C)C(=O)C3)CC1", "note": "[9-67, 3β-O-(3′,3′-Dimethylsuccinyl)-21-oxolup-18-en-28-oic acid N-(4-aminocarboxylic acid ethyl ester-1-piperidine)-acetamide]", "values": [
      {"measurement": "IC50", "setting": "[1]", "value": "< 199", "unit": "nM"}
    ]},
    {"smiles": "CC(C)NC(=O)NCCNC(=O)[C@@]12CC[C@]3(C)[C@H](CC[C@@H]4[C@@]5(C)CC[C@H](OC(=O)CC(C)(C)C(=O)O)C(C)(C)[C@@H]5CC[C@]43C)C1=C(C(C)C)C(=O)C2", "note": "[9-23, 3β-O-(3′,3′-Dimethylsuccinyl)-21-oxolup-18-en-28-oic acid N-[2-(3-isopropyl-ureido)-ethyl]-acetamide]", "values": [
      {"measurement": "IC50", "setting": "[1]", "value": "< 199", "unit": "nM"}
    ]}
  ]
}
